Source: patent publication US7932270B2 (Cytokinetics, Inc., priority 2006, dated 2011)

target: T1, chicken gizzard smooth muscle myosin subfragment-1 chemically crosslinked to cardiac or skeletal actin (Gallus gallus, UniProt P10587); assay: Smooth muscle myosin ATPase dose response assay (pyruvate kinase/horseradish peroxidase/pyruvate oxidase-coupled, amplex red fluorescence); type: biochemical; conditions: read-out: IC50 Arithmetic Mean
T1 construct: chicken gizzard smooth muscle myosin subfragment-1; from tissue; host or cells: chicken gizzard
Method in brief: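 Lead-optimization format: ATPase coupled via pyruvate kinase, pyruvate oxidase and peroxidase, pH 7.00 at 22° C, with 0.15 mM ATP, 100 mM KCl, 2 mM MgCl2, 2 mM phosphate and 0.1 mM amplex red (final). Crosslinked S1 titrated empirically for set hydrolysis rate; fluorescence (ex 480/em 615 nm) dose curves fit 4-parameter for IC50.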

T1 sequence (P02607 2-151): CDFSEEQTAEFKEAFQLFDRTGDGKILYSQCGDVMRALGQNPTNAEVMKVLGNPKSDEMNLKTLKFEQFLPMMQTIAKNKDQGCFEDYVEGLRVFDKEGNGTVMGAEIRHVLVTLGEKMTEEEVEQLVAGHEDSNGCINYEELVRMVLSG
T1 sequence (P10587 84-789): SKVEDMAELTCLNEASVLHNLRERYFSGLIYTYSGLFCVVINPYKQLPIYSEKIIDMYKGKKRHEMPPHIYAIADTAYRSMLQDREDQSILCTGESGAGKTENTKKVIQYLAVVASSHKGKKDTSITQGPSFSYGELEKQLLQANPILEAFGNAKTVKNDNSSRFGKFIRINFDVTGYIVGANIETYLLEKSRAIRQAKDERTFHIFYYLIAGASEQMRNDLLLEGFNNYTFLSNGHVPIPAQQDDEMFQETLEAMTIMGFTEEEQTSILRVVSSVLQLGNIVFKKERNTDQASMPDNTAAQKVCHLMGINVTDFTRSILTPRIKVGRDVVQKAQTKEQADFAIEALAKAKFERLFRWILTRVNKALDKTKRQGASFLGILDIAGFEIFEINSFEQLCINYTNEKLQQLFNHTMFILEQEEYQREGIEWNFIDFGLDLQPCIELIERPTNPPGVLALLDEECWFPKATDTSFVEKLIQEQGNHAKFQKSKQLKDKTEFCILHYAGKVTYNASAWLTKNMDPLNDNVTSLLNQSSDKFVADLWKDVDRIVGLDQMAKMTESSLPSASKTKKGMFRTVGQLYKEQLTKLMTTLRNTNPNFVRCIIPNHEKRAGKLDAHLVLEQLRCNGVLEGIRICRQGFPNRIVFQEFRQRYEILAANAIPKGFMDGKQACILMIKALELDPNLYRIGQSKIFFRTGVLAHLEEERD

Compound | IC50
N#Cc1ccccc1-c1ccc(C(=O)NCc2ccc(N)cn2)c(NCCc2cccc(F)c2)n1 [N-[(5-amino(2-pyridyl))methyl](6-(2-cyanophenyl)-2-{[2-(3-fluorophenyl)ethyl]amino}(3-pyridyl))carboxamide] | 0.021 µM
CC(C)(C)OC(=O)NCc1ccc(CNC(=O)c2ccc(-c3ccccc3C#N)nc2NCCc2cccc(F)c2)nc1 [N-[(5-{[(tert-butoxy)carbonylamino]methyl}(2-pyridyl))methyl](6-(2-cyanophenyl)-2-{[2-(3-fluorophenyl)ethyl]amino}(3-pyridyl))carboxamide] | 68.6 µM
N#Cc1ccccc1-c1ccc(C(=O)NCc2ccc(N)nc2)c(NCCc2cccc(F)c2)n1 [N-[(6-amino(3-pyridyl))methyl](6-(2-cyanophenyl)-2-{[2-(3-fluorophenyl)ethyl]amino}(3-pyridyl))carboxamide] | 0.026 µM
O=C(NCc1cccc(Br)n1)c1ccc(-c2cn[nH]c2)nc1NCCc1cccc(F)c1 [N-[(6-bromo(2-pyridyl))methyl](2-{[2-(3-fluorophenyl)ethyl]amino}-6-pyrazol-4-yl(3-pyridyl))carboxamide] | 0.117 µM
N#Cc1ccccc1-c1ccc(C(=O)NCc2cccc(Br)n2)c(NCCc2cccc(F)c2)n1 [N-[(6-bromo(2-pyridyl))methyl](6-(2-cyanophenyl)-2-{[2-(3-fluorophenyl)ethyl]amino}(3-pyridyl))carboxamide] | 0.233 µM
N#Cc1ccccc1-c1ccc(C(=O)NCc2ccc(Cl)nc2)c(NCCc2cccc(F)c2)n1 [N-[(6-chloro(3-pyridyl))methyl](6-(2-cyanophenyl)-2-{[2-(3-fluorophenyl)ethyl]amino}(3-pyridyl))carboxamide] | 1.79 µM
N#Cc1ccc(CNC(=O)c2ccc(-c3ccccc3)nc2NCCc2cccc(F)c2)cn1 [N-[(6-cyano(3-pyridyl))methyl](2-{[2-(3-fluorophenyl)ethyl]amino}-6-phenyl(3-pyridyl))carboxamide] | 1.24 µM
N#Cc1ccccc1-c1ccc(C(=O)NCc2cccc(CNCCN)n2)c(NCCc2cccc(F)c2)n1 [N-[(6-{[(2-aminoethyl)amino]methyl}(2-pyridyl))methyl](6-(2-cyanophenyl)-2-{[2-(3-fluorophenyl)ethyl]amino}(3-pyridyl))carboxamide] | 0.019 µM
N#Cc1ccccc1-c1ccc(C(=O)NC[C@H]2CCCCN2)c(NCCc2cccc(F)c2)n1 [N-[((2R)(2-piperidyl))methyl](6-(2-cyanophenyl)-2-{[2-(3-fluorophenyl)ethyl]amino}(3-pyridyl))carboxamide] | 1.16 µM
CC(=O)N1CCCC[C@@H]1CNC(=O)c1ccc(-c2ccccc2C#N)nc1NCCc1cccc(F)c1 [N-[((2R)-1-acetyl(2-piperidyl))methyl](6-(2-cyanophenyl)-2-{[2-(3-fluorophenyl)ethyl]amino}(3-pyridyl))carboxamide] | 2.68 µM
CC(=O)N1CC[C@@H]1CNC(=O)c1ccc(-c2ccccc2C#N)nc1NCCc1cccc(F)c1 [N-[((2R)-1-acetylazetidin-2-yl)methyl](6-(2-cyanophenyl)-2-{[2-(3-fluorophenyl)ethyl]amino}(3-pyridyl))carboxamide] | 0.043 µM
CC(=O)N1CCNC[C@@H]1CNC(=O)c1ccc(-c2ccccc2C#N)nc1NCCc1cccc(F)c1 [N-[((2R)-1-acetylpiperazin-2-yl)methyl](6-(2-cyanophenyl)-2-{[2-(3-fluorophenyl)ethyl]amino}(3-pyridyl))carboxamide] | 7.44 µM
CC(=O)N1CCC[C@@H]1CNC(=O)c1ccc(-c2ccccc2C#N)nc1NCCc1cccc(F)c1 [N-[((2R)-1-acetylpyrrolidin-2-yl)methyl](6-(2-cyanophenyl)-2-{[2-(3-fluorophenyl)ethyl]amino}(3-pyridyl))carboxamide] | 0.119 µM
CN1CCCC[C@@H]1CNC(=O)c1ccc(-c2ccccc2C#N)nc1NCCc1cccc(F)c1 [N-[((2R)-1-methyl(2-piperidyl))methyl](6-(2-cyanophenyl)-2-{[2-(3-fluorophenyl)ethyl]amino}(3-pyridyl))carboxamide] | 0.488 µM
CN1CCNC[C@@H]1CNC(=O)c1ccc(-c2ccccc2C#N)nc1NCCc1cccc(F)c1 [N-[((2R)-1-methylpiperazin-2-yl)methyl](6-(2-cyanophenyl)-2-{[2-(3-fluorophenyl)ethyl]amino}(3-pyridyl))carboxamide] | 15.7 µM
CN1CCC[C@@H]1CNC(=O)c1ccc(-c2ccccc2C#N)nc1NCCc1cccc(F)c1 [N-[((2R)-1-methylpyrrolidin-2-yl)methyl](6-(2-cyanophenyl)-2-{[2-(3-fluorophenyl)ethyl]amino}(3-pyridyl))carboxamide] | 0.214 µM
CC(C)(C)OC(=O)NCC(=O)N1CC[C@@H]1CNC(=O)c1ccc(-c2cn[nH]c2)nc1NCCc1cccc(F)c1 [N-[((2R)-1-{2-[(tert-butoxy)carbonylamino]acetyl}azetidin-2-yl)methyl](2-{[2-(3-fluorophenyl)ethyl]amino}-6-pyrazol-4-yl(3-pyridyl))carboxamide] | 2.99 µM
Cn1cc(-c2nc(NCCc3cccc(F)c3)c(C(=O)NC[C@H]3CCN3C(=O)CNC(=O)OC(C)(C)C)cc2F)cn1 [N-[((2R)-1-{2-[(tert-butoxy)carbonylamino]acetyl}azetidin-2-yl)methyl](5-fluoro-2-{[2-(3-fluorophenyl)ethyl]amino}-6-(1-methylpyrazol-4-yl)(3-pyridyl))carboxamide] | 0.436 µM
Cn1cc(-c2ccc(C(=O)NC[C@H]3CCCN3C(=O)CNC(=O)OC(C)(C)C)c(NCCc3cccc(F)c3)n2)cn1 [N-[((2R)-1-{2-[(tert-butoxy)carbonylamino]acetyl}pyrrolidin-2-yl)methyl](2-{[2-(3-fluorophenyl)ethyl]amino}-6-(1-methylpyrazol-4-yl)(3-pyridyl))carboxamide] | 5.53 µM
Cn1cc(-c2nc(NCCc3cccc(F)c3)c(C(=O)NC[C@H]3CCCN3C(=O)CNC(=O)OC(C)(C)C)cc2F)cn1 [N-[((2R)-1-{2-[(tert-butoxy)carbonylamino]acetyl}pyrrolidin-2-yl)methyl](5-fluoro-2-{[2-(3-fluorophenyl)ethyl]amino}-6-(1-methylpyrazol-4-yl)(3-pyridyl))carboxamide] | 0.625 µM
CC(C)(C)OC(=O)NCC(=O)N1CCC[C@@H]1CNC(=O)c1cc(F)c(-c2cn[nH]c2)nc1NCCc1cccc(F)c1 [N-[((2R)-1-{2-[(tert-butoxy)carbonylamino]acetyl}pyrrolidin-2-yl)methyl](5-fluoro-2-{[2-(3-fluorophenyl)ethyl]amino}-6-pyrazol-4-yl(3-pyridyl))carboxamide] | 1.08 µM
CC(C)(C)OC(=O)NCC(=O)N1CCC[C@@H]1CNC(=O)c1cc(F)c(-c2ccccc2C#N)nc1NCCc1cccc(F)c1 [N-[((2R)-1-{2-[(tert-butoxy)carbonylamino]acetyl}pyrrolidin-2-yl)methyl](6-(2-cyanophenyl)-5-fluoro-2-{[2-(3-fluorophenyl)ethyl]amino}(3-pyridyl))carboxamide] | 2.79 µM
CC(C)(C)OC(=O)NCCN1CCC[C@@H]1CNC(=O)c1ccc(-c2ccccc2C#N)nc1NCCc1cccc(F)c1 [N-[((2R)-1-{2-[(tert-butoxy)carbonylamino]ethyl}pyrrolidin-2-yl)methyl](6-(2-cyanophenyl)-2-{[2-(3-fluorophenyl)ethyl]amino}(3-pyridyl))carboxamide] | 3.69 µM
